Measurements: patent publication US9840482B2, “Sulfonamide derivatives and pharmaceutical applications thereof” (Sunshine Lake Pharma Co., Ltd., priority 2014, dated 2017)

Target: T1, human 5-HT6 receptor (Homo sapiens, UniProt P50406)
T1 construct: expressed in transfected cells; host or cells: CHO cells (membrane preparation)
Assay: Radioligand binding assay ([3H]LSD) on membranes of CHO cells expressing human 5-HT6 receptor
Details: human 5-HT6 receptor expressed in CHO cell, 2 nM [3H]LSD, 37° C., 120 min
Procedure: The binding affinities of the compounds of this invention to human 5-HT6 receptor expressed in CHO cell were evaluated by radioligand binding assay in this example. Briefly, for each compound of the present invention, the binding affinity thereof was tested through the following steps:
32 μg membrane proteins of CHO cell expressing human 5-HT6 receptor, 2 nM of radioactive marker [3H]LSD, a compound of the present invention having different test concentrations, 100 μM 5-HT (5-HT was used to eliminate nonspecific binding sites) and a buffer solution were mixed uniformly. Then the resulting mixture was incubated at 37° C. for 120 min, in which the buffer solution was comprised of 50 mM Tris-HC1 (pH 7.4), 10 mM MgCl2, 0.5 mM EDTA, 10 μM pargyline and 20 mg/L protease inhibitor.
After incubation, the resluting mixture was filtered by a fiberglass filter in vacuo (GF/B, Packard), and the filter membrane of the fiberglass filter was preimpregnated with 0.3% PEI before the filtering and washed with 50 mM of Tris-HC1 for several times after the filtering. After the filter membrane was dried, and the radioactivity of filter membrane was determined by liquid scintillation counting by using a scintillometer (Topcount, Packard). The reference standard was 5-HT, and IC50 values were calculated by competitive inhibition curves plotted based on several inhibition ratios and the corresponding compound concentrations.

T1 sequence (P50406 whole entry): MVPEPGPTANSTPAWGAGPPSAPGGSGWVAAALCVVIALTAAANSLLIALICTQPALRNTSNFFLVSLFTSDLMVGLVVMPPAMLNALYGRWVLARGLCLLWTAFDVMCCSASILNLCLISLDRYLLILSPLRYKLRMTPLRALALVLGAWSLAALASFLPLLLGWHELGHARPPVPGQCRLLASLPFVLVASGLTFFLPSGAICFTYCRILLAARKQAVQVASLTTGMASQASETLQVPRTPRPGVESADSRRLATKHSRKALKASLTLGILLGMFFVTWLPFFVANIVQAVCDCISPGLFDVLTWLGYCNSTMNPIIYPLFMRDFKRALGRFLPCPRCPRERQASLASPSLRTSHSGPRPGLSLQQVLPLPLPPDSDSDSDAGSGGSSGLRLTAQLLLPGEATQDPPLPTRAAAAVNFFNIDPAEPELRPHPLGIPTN

SMILES | IC50
COc1ccc(S(=O)(=O)NCCc2cccc3ccccc23)cc1N1CCNCC1 [Example 1] | 2.7 nM
COc1ccc(S(=O)(=O)NCCc2cccc3ccccc23)cc1N1CCN(C)CC1 [Example 2] | 0.92 nM
COc1ccc(S(=O)(=O)NCCc2cccc3c(OC)cccc23)cc1N1CCN(C)CC1 [Example 4, 4-Methoxy-N-(2-(5-methoxynaphthalen-1-yl)ethyl)-3-(4-methylpiperazin-1-yl) benzenesulfonamide] | 11 nM
COc1ccc(S(=O)(=O)NCCc2cccc3cc(F)ccc23)cc1N1CCN(C)CC1 [Example 6] | 1.3 nM
COc1ccc2cccc(CCNS(=O)(=O)c3ccc(OC)c(N4CCNCC4)c3)c2c1 [Example 7, 4-Methoxy-N-(2-(7-methoxynaphthalen-1-yl)ethyl)-3-(piperazin-1-yl) benzenesulfonamide] | 1 nM
COc1ccc2cccc(CCNS(=O)(=O)c3ccc(OC)c(N4CCN(C)CC4)c3)c2c1 [Example 8] | 0.5 nM
COc1ccc(S(=O)(=O)NCCc2cccc3ccc(F)cc23)cc1N1CCNCC1 [Example 9] | 0.69 nM
COc1ccc(S(=O)(=O)NCCc2cccc3ccc(F)cc23)cc1N1CCN(C)CC1 [Example 10] | 0.28 nM
COc1ccc(S(=O)(=O)NCCc2cccc3ccc(Br)cc23)cc1N1CCNCC1 [Example 11, N-(2-(7-Bromonaphthalen-1-yl)ethyl)-4-methoxy-3-(piperazin-1-yl) benzenesulfonamide] | 2.1 nM
COc1ccc(S(=O)(=O)NCC(C)(C)c2cccc3ccccc23)cc1N1CCNCC1 [Example 13, 4-Methoxy-N-(2-methyl-2-(naphthalen-1-yl)propyl)-3-(piperazin-1-yl) benzenesulfonamide] | 1.3 nM
COc1ccc(S(=O)(=O)NCC(C)(C)c2cccc3cc(F)ccc23)cc1N1CCNCC1 [Example 15, N-(2-(6-fluoronaphthalen-1-yl)-2-methylpropyl)-4-methoxy-3-(piperazin-1-yl)benzene sulfonamide] | 11 nM
COc1ccc(S(=O)(=O)NCC(C)(C)c2cccc3ccc(Br)cc23)cc1N1CCNCC1 [Example 21, N-(2-(7-Bromonaphthalen-1-yl)-2-methylpropyl)-4-methoxy-3-(piperazin-1-yl) benzenesulfonamide] | 1.7 nM
COc1ccc(S(=O)(=O)NCC(C)(C)c2cccc3ccc(Br)cc23)cc1N1CCN(C)CC1 [Example 22, N-(2-(7-Bromonaphthalen-1-yl)-2-methylpropyl)-4-methoxy-3-(4-methylpiperazin-1-yl) benzenesulfonamide] | 0.31 nM
COc1ccc(S(=O)(=O)NCC2(c3cccc4ccccc34)CC2)cc1N1CCNCC1 [Example 23, 4-Methoxy-N-((1-(naphthalen-1-yl)cyclopropyl)methyl)-3-(piperazin-1-yl) benzenesulfonamide] | 3.7 nM
COc1ccc(S(=O)(=O)NCC2(c3cccc4ccccc34)CC2)cc1N1CCN(C)CC1 [Example 24, 4-Methoxy-3-(4-methylpiperazin-1-yl)-N-((1-(naphthalen-1-yl)cyclopropyl)methyl) benzenesulfonamide] | 2 nM
COc1ccc(S(=O)(=O)NCC2(c3cccc4cc(F)ccc34)CC2)cc1N1CCNCC1 [Example 25, N-((1-(6-fFluoronaphthalen-1-yl)cyclopropyl)methyl)-4-methoxy-3-(piperazin-1-yl) benzenesulfonamide] | 16 nM
COc1ccc(S(=O)(=O)NCC2(c3cccc4cc(F)ccc34)CC2)cc1N1CCN(C)CC1 [Example 26, N-((1-(6-Fluoronaphthalen-1-yl)cyclopropyl)methyl)-4-methoxy-3-(4-methylpiperazin-1-yl) benzenesulfonamide] | 3.2 nM
COc1ccc2cccc(C3(CNS(=O)(=O)c4ccc(OC)c(N5CCN(C)CC5)c4)CC3)c2c1 [Example 28, 4-Methoxy-N-((1-(7-methoxynaphthalen-1-yl)cyclopropyl)methyl)-3-(4-methylpiperazin-1-yl) benzenesulfonamide] | 2.1 nM
COc1ccc(S(=O)(=O)NCC2(c3cccc4ccc(F)cc34)CC2)cc1N1CCNCC1 [Example 29] | 2.3 nM
COc1ccc(S(=O)(=O)NCCc2ccc(OC)c3ccccc23)cc1N1CCNCC1 [Example 33, 4-Methoxy-N-(2-(4-methoxynaphthalen-1-yl)ethyl)-3-(piperazin-1-yl) benzenesulfonamide] | 5.5 nM
COc1ccc(S(=O)(=O)NCCc2ccc(F)c3ccccc23)cc1N1CCNCC1 [Example 35] | 1.6 nM

Continued by falling IC50, values first:

IC50 | SMILES
31 nM | COc1ccc(S(=O)(=O)NCCc2cccc3c(OC)cccc23)cc1N1CCNCC1 [Example 3, 4-Methoxy-N-(2-(5-methoxynaphthalen-1-yl)ethyl)-3-(piperazin-1-yl) benzenesulfonamide]
5 nM | COc1ccc2cccc(C3(CNS(=O)(=O)c4ccc(OC)c(N5CCNCC5)c4)CC3)c2c1 [Example 27, 4-Methoxy-N-((1-(7-methoxynaphthalen-1-v1)cyclopropyl)methyl)-3-(piperazin-1-yl) benzenesulfonamide]
4.1 nM | COc1ccc(S(=O)(=O)NCCc2cccc3cc(F)ccc23)cc1N1CCNCC1 [Example 5]
2.6 nM | COc1ccc(S(=O)(=O)NCCc2ccc(OC)c3ccccc23)cc1N1CCN(C)CC1 [Example 34]
1.4 nM | COc1ccc2cccc(C(C)(C)CNS(=O)(=O)c3ccc(OC)c(N4CCN(C)CC4)c3)c2c1 [Example 18, 4-Methoxy-N-(2-(7-methoxynaphthalen-1-yl)-2-methylpropyl)-3-(4-methylpiperazin-1-yl) benzenesulfonamide]
1.2 nM | COc1ccc(S(=O)(=O)NCC2(c3cccc4ccc(Br)cc34)CC2)cc1N1CCNCC1 [Example 31]
1.1 nM | COc1ccc2cccc(C(C)(C)CNS(=O)(=O)c3ccc(OC)c(N4CCNCC4)c3)c2c1 [Example 17, 4-Methoxy-N-(2-(7-methoxynaphthalen-1-yl)-2-methylpropyl)-3-(piperazin-1-yl)benzene sulfonamide]
0.46 nM | COc1ccc(S(=O)(=O)NCCc2ccc(F)c3ccccc23)cc1N1CCN(C)CC1 [Example 36]
0.17 nM | COc1ccc(S(=O)(=O)NCCc2cccc3ccc(Br)cc23)cc1N1CCN(C)CC1 [Example 12, N-(2-(7-Bromonaphthalen-1-yl)ethyl)-4-methoxy-3-(4-methylpiperazin-1-yl) benzene sulfonamide]

Test system: not listed separately
Assay: Pharmacokinetic evaluation after intravenous or gavage administration to dogs
Assay type: in vivo, Beagle dogs
Details: by gavage, 5 mg/kg
Procedure: The LC/MS/MS system for the analysis comprised an Agilent 1200 Series Vacuum Degasser, binary syringe pumps, a well-plate autosampler, a column oven and an Agilent G6430A Triple Quadrupole Mass Spectrometer equiped with an electrospray ionization (ESI) source, Quantitative analysis was performed in the MRM mode and the conversion parameters of MRM were listed in Table 3:
Analysis was performed on waters)(Bridge C18 (2.1×50 mm, […] column, and 5 μL of sample was injected). Conditions of the analysis comprised: a mobile phase consisted of mobile phase A (water, 2 mM ammonium formate and 0.1% formic acid) and mobile phase B (methanol, 2 mM ammonium formate and 0.1% formic acid), the flow rate was 0.4 mL/min, and the conditions of gradient elution were listed in Table 4: […]
In vivo pharmacokinetic assays in dogs of the compounds disclosed herein were performed by the following steps.
Experiments were divided into two groups, one group was performed through intravenous drug delivery, and the other group was performed by gavage. The compounds disclosed herein were administered in form of a saline solution containing 5% DMSO, 5% Kolliphor HS 15, 2% (2% HC1) and 88% Saline, or the solution containing 10% DMSO, 10% Kolliphor HS 15 and 80% physiological saline. […]

SMILES | area under the plasma concentration vs time curve (AUClast)
COc1ccc(S(=O)(=O)NCC(C)(C)c2cccc3ccccc23)cc1N1CCNCC1 [Example 13, 4-Methoxy-N-(2-methyl-2-(naphthalen-1-yl)propyl)-3-(piperazin-1-yl) benzenesulfonamide] | more than 15000 h*ng/mL
